Laboratory results: patent US12557829B2, “Liquid-phase, supplementary feed composition containing coenzyme Q10” (priority 2021, dated 2026)
Where two headings read alike, the source gives them in different places.

Assay: Single intravenous administration, plasma concentration of coenzyme Q10
Assay type: in vivo
Conditions: rat, 6 mg/kg, rats
Protocol: The supplementary feed composition containing coenzyme Q10 was orally administered to rats for 5 consecutive days, and systemic absorption was examined after oral administration on the 5th day. In addition, a single intravenous injection test was performed to evaluate the absorption rate (bioavailability).
Single Intravenous Administration Experiment
Plasma concentration measurement after intravenous coenzyme Q10 administration: dose (6 mg/kg), measured up to 6 hours
Plasma Collection after Intravenous Administration
After lightly anesthetizing the rats with ether, a polyethylene tube (PE-50, Intramedic, Clay Adams, USA) was intubated into the left femoral artery and vein. After the rats recovered from anesthesia, coenzyme Q10 was intravenously administered (6 mg/kg), and blood was collected from the left femoral artery at 0 (blank), 1, 5, 10, 15, 30, 60, 90, 120 and 180 minutes. 250 μl of blood was received in a microtube, and 100 μl of plasma obtained after centrifugation was used for quantification.
Quantification of the Concentration of Coenzyme Q10 in Plasma
For coenzyme Q10, a calibration curve was prepared in which a good linear relationship (R=0.999) was established in the concentration range of 0.05 μg/mL to 10 μg/mL. […] 100 μL of this was taken and quantified by the HPLC assay described above.

Question: For `COC1=C(OC)C(=O)C(C/C=C(\C)CC/C=C(\C)CC/C=C(\C)CC/C=C(\C)CC/C=C(\C)CC/C=C(\C)CC/C=C(\C)CC/C=C(\C)CC/C=C(\C)CCC=C(C)C)=C(C)C1=O` [coenzyme Q10, 2,3-dimethoxy-5-methyl-6-decaprenyl-1,4-benzoquinone], which half-life (read-out: half-life (t1/2,α) in the pre-distribution phase (α phase)) is on record?
Answer: 3.3 min

Question: What about the half-life (read-out: half-life (t1/2,β) in the post-distribution phase (β phase)) of the same compound?
Answer: 52 min
